Data as given in patent US10464925B2, “Methods to induce targeted protein degradation through bifunctional molecules” (Dana-Farber Cancer Institute, Inc., priority 2015, dated 2019).
Read-outs that look alike come from different tables or passages of the source.

How the values were obtained:
KP2 = test: cells; conditions: 72 h
MDA-MB-436 = test: cells; conditions: Homo sapiens, MDA-MB-436, 72 h
CUTL1 = test: Cell viability, ATPlite 48 hours, CUTLL1; type: cell-based; conditions: CUTL1 cells
Method: (§1) ATP content was measured as a surrogate for cellular viability using ATPlite (Promega).

NCI-H460 = test: cells; conditions: Homo sapiens, NCI-H460, 72 h
LCLC-103H = test: cells; conditions: Homo sapiens, 72 h
Cl-1 = test: cells; conditions: 72 h
Calu6 = test: Cell viability, ATPlite 72 hours; type: cell-based; conditions: Homo sapiens, Calu-6
Method: Various cell lines were seeded into 384-well tissue culture-treated plates at a density of 2,000 cells per well in a volume of 50 μL/well. […] After 72 hours of incubation, cells were analyzed for cell viability using the ATPlite (PerkinElmer) Luminescence Assay Kit per the manufacturer's instructions, using ATP content as a surrogate for viable cell number. Luminescence was read on an EnVision 2104 Multilabel Plate Reader (PerkinElmer).

SKMEL28 = test: cells; conditions: Homo sapiens, SK-MEL-28, 72 h
ZR-75-1_YMB-1 = test: cells; conditions: 72 h
SUM149R = test: cells; conditions: 72 h
SUM159R = test: cells; conditions: 72 h
SBC-5 = test: cells; conditions: Homo sapiens, SBC-5, 72 h
NMC-G1 = test: cells; conditions: 72 h
NGP = test: Cell viability, ATPlite 72 hours; type: cell-based; conditions: NGP; for IC50: read-out: IC50 (nM) NGP
SUM185 = test: cells; conditions: 72 h
CCF-STTG1 = test: Cell viability, ATPlite 72 hours; type: cell-based; conditions: Homo sapiens
SUM149 = test: cells; conditions: SUM149, 72 h
MOLT4 = test: Cell viability, ATPlite 48 hours, MOLT4; type: cell-based; conditions: Homo sapiens, MOLT-4; MOLT4 cells
Method: as §1

SW1783 = test: cells; conditions: Homo sapiens, SW1783, 72 h
NCI-H838 = test: cells; conditions: Homo sapiens, NCI-H838, 72 h
PANC032 = test: cells; conditions: 72 h
HCT116 = test: cells; conditions: Homo sapiens, HCT-116, 72 h
A549 = test: cells; conditions: Homo sapiens, A549, 72 h
BRDT = BRDT (Homo sapiens, UniProt Q58F21); test: BRDT IC50 (Table 4); type: binding; conditions: read-out: IC50 (nM) BRDT
DND41 = test: Cell viability, ATPlite 48 hours, DND41; type: cell-based; conditions: DND41 cells
Method: as §1

MC116 = test: cells; conditions: Homo sapiens, MC116, 72 h
KARPAS = test: cells; conditions: 72 h
MDA-MB-231 = test: cells; conditions: Homo sapiens, MDA-MB-231, 72 h
KP-N-YN = test: cells; conditions: 72 h
MKN45 = test: cells; conditions: Homo sapiens, MKN-45, 72 h
ASPC1 = test: cells; conditions: Homo sapiens, ASPC1, 72 h

Cc1sc2c(c1C)C(c1ccc(Cl)cc1)=N[C@@H](CC(=O)NCCCCCCCCNC(=O)COc1cccc3c1C(=O)N(C1CCC(=O)NC1=O)C3=O)c1nnc(C)n1-2 (stereo partly shown) [dBET6]
Emax (KP2; read-out: Emax (%) KP2): 20.7%
IC50 (KP2; read-out: IC50 (nM) KP2): 513 nM
Emax (MDA-MB-436; read-out: Emax (%) MDA-MB-436): 29.5%
IC50 (MDA-MB-436; read-out: IC50 (nM) MDA-MB-436): 39.6 nM
IC50 (CUTL1): 70.8 nM
Emax (NCI-H460; read-out: Emax (%) NCI-H460): 34.4%
IC50 (NCI-H460; read-out: IC50 (nM) NCI-H460): 438 nM
Emax (LCLC-103H; read-out: Emax (%) LCLC-103H): 24%
IC50 (LCLC-103H; read-out: IC50 (nM) LCLC-103H): 84.2 nM
Emax (Cl-1; read-out: Emax (%) Cl-1): 10.7%
IC50 (Cl-1; read-out: IC50 (nM) Cl-1): 23.3 nM
Emax (Calu6): 51.7%
IC50 (Calu6): 233 nM
Emax (SKMEL28; read-out: Emax (%) SKMEL28): 59%
IC50 (SKMEL28; read-out: IC50 (nM) SKMEL28): 474 nM
Emax (ZR-75-1_YMB-1; read-out: Emax (%) ZR-75-1_YMB-1): 21.6%
IC50 (ZR-75-1_YMB-1; read-out: IC50 (nM) ZR-75-1_YMB-1): 23.5 nM
Emax (SUM149R; read-out: Emax (%) SUM149R): 10.6%
IC50 (SUM149R; read-out: IC50 (nM) SUM149R): 18.5 nM
Emax (SUM159R; read-out: Emax (%) SUM159R): 36%
IC50 (SUM159R; read-out: IC50 (nM) SUM159R): 92.4 nM
Emax (SBC-5; read-out: Emax (%) SBC-5): 21.6%
IC50 (SBC-5; read-out: IC50 (nM) SBC-5): 841 nM
Emax (NMC-G1; read-out: Emax (%) NMC-G1): 36.6%
IC50 (NMC-G1; read-out: IC50 (nM) NMC-G1): 70 nM
Emax (NGP; 72 h, read-out: Emax (%) NGP): 21.9%
IC50 (NGP; 72 h): 188 nM
IC50 (NGP): 188 nM
Emax (SUM185; read-out: Emax (%) SUM185): 22.9%
IC50 (SUM185; read-out: IC50 (nM) SUM185): 1.44 nM
Emax (CCF-STTG1): 45.8%
Emax (SUM149; read-out: Emax (%) SUM149): 27.9%
IC50 (SUM149; read-out: IC50 (nM) SUM149): 131 nM
IC50 (MOLT4): 65.3 nM
Emax (SW1783; read-out: Emax (%) SW1783): 22.2%
IC50 (SW1783; read-out: IC50 (nM) SW1783): 38.2 nM
Emax (NCI-H838; read-out: Emax (%) NCI-H838): 32.2%
IC50 (NCI-H838; read-out: IC50 (nM) NCI-H838): 52 nM
Emax (PANC032; read-out: Emax (%) PANC032): 53.2%
IC50 (PANC032; read-out: IC50 (nM) PANC032): 1450 nM
Emax (HCT116; read-out: Emax (%) HCT116): 26.9%
IC50 (HCT116; read-out: IC50 (nM) HCT116): 154 nM
Emax (A549; read-out: Emax (%) A549): 30.9%
IC50 (A549; read-out: IC50 (nM) A549): 1900 nM
IC50 (BRDT): 56 nM
IC50 (DND41): 34.4 nM
Emax (MC116; read-out: Emax (%) MC116): 0.32%
IC50 (MC116; read-out: IC50 (nM) MC116): 20.5 nM
Emax (KARPAS; read-out: Emax (%) KARPAS): 21%
IC50 (KARPAS; read-out: IC50 (nM) KARPAS): 2.18 nM
Emax (MDA-MB-231; read-out: Emax (%) MDA-MB-231): 24.2%
IC50 (MDA-MB-231; read-out: IC50 (nM) MDA-MB-231): 146 nM
Emax (KP-N-YN; read-out: Emax (%) KP-N-YN): 42.8%
IC50 (KP-N-YN; read-out: IC50 (nM) KP-N-YN): 9.41 nM
Emax (MKN45; read-out: Emax (%) MKN45): 19.4%
IC50 (MKN45; read-out: IC50 (nM) MKN45): 41.1 nM
Emax (ASPC1; read-out: Emax (%) ASPC1): 50.4%
IC50 (ASPC1; read-out: IC50 (nM) ASPC1): 1460 nM
